For 14 molecules, TGI and GI50 results are on record in PubChem BioAssay (NCI).

The structures appear in SMILES notation.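 A five-concentration, 48-hour dose response in 96-well plates underlies each endpoint, interpolated linearly between surrounding concentrations. At the GI50, growth is halved. TGI: total growth inhibition.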

What all share (assay): NCI anticancer screen, dose series, 48 h
Experiment [1] relates to LOX IMVI melanoma.
The test system of experiment [2] is 786-0 renal.
Experiment [3] deals with CAKI-1 renal.
Experiment [4] relates to M14 melanoma.
In experiment [5] the test system is MDA-MB-435.
In experiment [6] the test system is BT-549 breast.
In experiment [7] the test system is HOP-92 NSCLC.
In experiment [8] the test system is OVCAR-5 ovarian.
Experiment [9] concerns M19-MEL melanoma.
The test system of experiment [10] is XF 498 CNS.
The subject of experiment [11] is KM20L2 colon.
Experiment [12] concerns DMS 273 small cell lung.
In experiment [13] the test system is NCI-H23 lung.
Experiment [14] concerns DMS 114 small cell lung.

`Cc1ccc(Nc2nc(=O)c3c([nH]c4ccccc43)s2)cc1`: the TGI in experiment [1] stood at 27.1 µM; in experiment [2], 27.6 µM; in [3], 24.5 µM; in [4], 18.1 µM; in experiment [5] it was 7.4 µM; in experiment [6] it was 33.5 µM. The molecule also registered a TGI in experiment [7] of 25.6 µM.

On to `CSCC(CO)NC(=O)/C=C/c1c(C)[nH]c(=O)[nH]c1=O` (configuration not stated), for which the TGI was over 875 µM in [1]; over 875 µM in [8]; over 875 µM in experiment [9]; 815 µM in experiment [10]; over 87.5 µM in [3]; over 875 µM in [11]. Moreover, the TGI in [12] is over 875 µM; in experiment [13], over 875 µM; in experiment [14], over 801 µM; in [7], 742 µM.

For the molecule `CC(=O)OC1CC(OC2C(O)CC(OC3C(O)CC(OC4CCC5(C)C(CCC6C5CCC5(C)C(C7=CC(=O)OC7)CCC65O)C4)OC3C)OC2C)OC(C)C1OC1OC(CO)C(O)C(O)C1O` (configuration not stated), the TGI is 0.0685 µM in experiment [1]; 0.116 µM in experiment [8]; 0.0598 µM in [2]; under 0.0321 µM in experiment [3]; 0.188 µM in experiment [4]; 0.172 µM in experiment [5]. The TGI in experiment [6] came out at 0.0984 µM; in [13], 0.0233 µM; in experiment [7] it was 0.234 µM.

On to `O=C(Sc1n[nH]c(=O)[nH]c1=O)c1cccc2nc3ccccc3nc12`, for which the TGI in experiment [1] was over 100 µM; in experiment [8], over 100 µM; in experiment [2], over 100 µM; in experiment [3] it was over 100 µM; in experiment [4], over 100 µM; in experiment [5], 29 µM. Besides, the TGI in experiment [6] is over 100 µM; in experiment [13], 26.8 µM; in experiment [7], over 100 µM.

In the case of `CN(C)c1cccc(OC(=O)NCCCl)c1`, the TGI in experiment [1], in experiment [8], in experiment [9], in experiment [10], in experiment [3] and in experiment [11] was over 100 µM throughout. In addition, the TGI in experiment [12], in experiment [13], in experiment [14] and in experiment [7] was over 100 µM in each case. The GI50 in [11] and in experiment [7] was over 100 µM throughout.

With `S=c1[nH]n2c(COc3ccc(Cl)cc3)nnc2s1`, the TGI in [8], in experiment [2], in experiment [3], in experiment [4], in experiment [5] and in experiment [13] was over 100 µM each time. Also, in experiment [7], the TGI is over 100 µM.

In the case of `CC1(C)N=C(c2ccccc2)SC12S[C@@H]1CCCC[C@H]1S2`, the TGI in [1], in experiment [8], in experiment [3], in experiment [4], in [5] and in experiment [6] was over 100 µM in each case. Moreover, the figures for the TGI in [13] and in experiment [7] were 31.3 µM and over 100 µM, respectively.

Turning to `O=S(O)CCCSSSCCCS(=O)O`, the TGI in experiment [1], in [8], in experiment [9], in experiment [10], in experiment [11] and in [4] was over 100 µM throughout. Moreover, the TGI in [13] and in experiment [14] was over 100 µM in each case.

Take `CO/C=C1\OC(=O)C=C1OC`: the TGI in experiment [1], in experiment [8], in [9], in [10], in experiment [3] and in [12] was over 100 µM in each case. The TGI in [13], in experiment [14] and in experiment [7] was over 100 µM each time.

For `c1ccc2c(c1)SP1Sc3ccccc3P21` (configuration not stated), the TGI in [1], in experiment [8], in experiment [9], in [10], in experiment [11] and in experiment [12] was over 100 µM in each case. Also, the TGI in experiment [13], in [14] and in experiment [7] was over 100 µM each time.

`Cc1cccc2c1Sc1ccccc1C2NC(=O)CN(C)C` (configuration not stated): the TGI was over 100 µM in [1]; over 100 µM in [8]; over 100 µM in experiment [9]; over 100 µM in [10]; 37.4 µM in [11]; over 100 µM in experiment [4]. Moreover, the TGI in experiment [12], in experiment [13] and in experiment [14] was over 100 µM throughout.

With `c1csc(-c2ccc(CNc3c4ccccc4nc4ccccc34)cc2)c1`, the GI50 in experiment [3] is 1.46 µM; in experiment [4] it was 1.75 µM; in [5], 0.322 µM; in experiment [6] it was 3.87 µM; in experiment [7], 1.26 µM. In addition, the TGI was found to be 5.61 µM in experiment [3]; 3.4 µM in [4]; 1.09 µM in experiment [5]; 14.1 µM in experiment [6]; 2.81 µM in experiment [7].

Take `CN(c1ccccc1)c1nc(=[N+]2CCCC2)ss1`: the TGI in experiment [2], in experiment [3], in experiment [11], in [4], in experiment [12] and in [14] was over 100 µM throughout.

As to `NNC(=O)CCc1ccc2ccc3ccccc3c2c1`, the TGI in [1], in [8], in [2], in experiment [3], in experiment [4] and in [5] was over 100 µM throughout. Further, the TGI in experiment [6], in experiment [13] and in experiment [7] was over 100 µM in each case.
